The values that follow come from paper PMC7615676, “Short-course combination treatment for experimental chronic Chagas disease” (Science translational medicine, 2023).

≈ marks a conversion by molar mass, not a printed value. Where two headings read alike, the source gives them in different places.

Data set [1] concerns chronic T. cruzi infection (CL Brener) in BALB/c mice. Nature of the data set: bioluminescent mouse model of chronic Chagas disease. It counts as in vivo, Trypanosoma cruzi. As to conditions: 5 days.
A short description of data set [2]: plasma protein binding, equilibrium dialysis. It counts as in vitro ADME. As to conditions: pH 7.4, mouse plasma, read-out: Mouse PPB % (converted). The procedure:
In vitro plasma protein binding was measured in mouse and human plasma using equilibrium dialysis at a nominal concentration of 2 μM. The RED inserts were placed in the 48 wells of the Teflon Plate (Pierce). Samples were prepared by mixing the test compound with plasma at the appropriate concentrations to yield a final drug concentration of 2 μM. Triplicate aliquots of plasma containing compounds at a concentration of 2 μM were pipetted to plasma side (red) of the insert, and PBS (phosphate buffered saline) pH 7.4 was placed into the receiver side (white) of the insert. The plate was covered with the sealing tape and incubated in a 37 °C orbital shaker water bath at approximately 150 rpm for 4 h. Following incubation, samples were prepared in a mixed matrix configuration. Aliquots of samples were pipetted into 96-well plates, and precipitation buffer was added to protein precipitate the samples. Samples were vortexed to mix, then centrifuged for 15 min at 3700 rpm and 4 °C. The supernatant was assayed directly by LC−MS/MS. The following equation was used to calculate the percentage bound drug fraction using this equilibrium dialysis method
% unbound = (buffer chamber]/[plasma chamber) x100

The nature of data set [3]: intrinsic clearance in human liver microsomes. It counts as in vitro ADME. As to conditions: for half-life at 0.5 μM: read-out: T 1/2 human. The procedure:
(§1) Immediately at time zero and at several serial times points up to 30 min, an aliquot of the incubation mixture was removed and mixed with acetonitrile to stop the reaction. Internal standard was added to all samples, the samples centrifuged to sediment precipitated protein and the plates then sealed prior to HPLC-MS/MS analysis. Metabolic stability expressed as a percentage of the parent molecule was calculated using the peak area ratio (compound peak area/internal standard peak area) of different compounds remaining after each incubation time compared to time zero of the incubation. The half-life (t1/2) was calculated using the following equation: t1/2=−ln(2)/k, where k is the turn-over rate constant of the ln (percent remaining) vs time regression.
(§2) CLint was calculated from the half-life (t1/2) using the following equations:
(§3) CLint (ml/min/g liver) = (0.693/(t1/2) x (ml of incubation/mg microsomal protein) x (mg microsomal protein/g liver).

Data set [4] can be described thus: FaSSIF solubility assay. It counts as physicochemical. The following applies: pH 6.5, 4 h. The procedure:
Solubility of test compounds in fasted simulated intestinal fluid (FaSSIF) was determined at pH 6.5 after 4 h equilibration at rt. An amount of1 mL of FaSSIF buffer (3 mM sodium taurocholate, 0.75 mM lecithin in sodium phosphate buffer at pH 6.5) was added to manually weighed 1 mg of solid compound in a 2 mL HPLC autosampler vial. The resulting suspension was shaken at 900 rpm for 4 h at rt and then transferred to a Multiscreen HTS, 96-well solubility filter plate. The residual solid was removed by filtration. The supernatant solution was quantified by HPLC−UV using single-point calibration of a known concentration of the compound in DMSO. The dynamic range of the assay was 1−1000 μg/mL.

Data set [5] is described as follows: Property Forecast Index. It counts as physicochemical. The following applies: number of aromatic rings + ChromLogD at pH 7.4.
In data set [6] the test system is T. cruzi epimastigotes bearing mutations in cytochrome b. Briefly: epimastigote drug sensitivity assay, cytochrome b mutant / resistant lines. It counts as cell-based, Trypanosoma cruzi. As to conditions: for EC50: Trypanosoma cruzi; for fold change from WT, L197I: compound 3-resistant line (L197I); for fold change from WT, F222L: compound 5-resistant line (F222L). How it is done: (§4) T. cruzi epimastigotes from the Silvio strain (MHOM/BR/78/Silvio; clone X10/7A) were grown at 28°C in RTH/FBS medium ([80]).
(§5) T. cruzi epimastigote assays carried out as described previously ([43]).
Compound-resistant cell lines were generated by subculturing clones of wild-type T. cruzi epimastigotes in the continuous presence of compound 3 or compound 5. Starting at sublethal concentrations, drug concentrations in 3 independent cultures were increased in a stepwise manner, usually by 2-fold. When parasites were able to survive and grow in compound concentrations equivalent to >30-fold their established EC50 value, they were cloned by limiting dilution in the presence of compound. Three independent clones were selected from each compound for further study.

Data set [7] concerns the target T. cruzi complex III (epimastigote lysates) (Trypanosoma cruzi, UniProt Q9T479). Nature of the data set: T. cruzi complex III assay. It counts as biochemical. The following applies: decylubiquinol substrate. How it is done: Complex III activity within these lysates was monitored in the presence and absence of compound 3, compound 5 and related analogues from this series, using decylubiquinol as a pseudo-substrate ([43]).
Measurement of complex III activity and inhibition were performed as described previously ([43]).

Data set [8] relates to T. cruzi culture derived trypomastigotes, strain Silvio X10/7 A1. Briefly: trypomastigote assay. It counts as cell-based. As to conditions: Trypanosoma cruzi. The procedure: Trypomastigote assays using strain Silvio X10/7 subclone A1 were carried out as described in ([19]). Parasite culture and potency determinations for panel of strains were performed as in ([19]). Strains used were M6241 clone 6 (DTU III), ERA clone 2 (DTU IV), PAH179 clone 5 (DTU V) and CL Brener-Luciferase (PpyRE9h-expressing T. cruzi, same strain that is used in animal model studies ([67])) (DTU VI). […] For Y strain compound exposure time was 3 days. Rate-of-kill assays were carried out as described in ([39]).

Data set [9] can be described thus: kinetic aqueous solubility (CLND). It counts as physicochemical. The following applies: phosphate buffered saline, aqueous buffer, kinetic from dmso stock, pH 7.4. How it is done:
The eluent is quantified by suitably calibrated flow injection CLND. This assay has a dynamic range between the lower detection limit of 1 and 500 μM, governed by the protocol’s 1:20 dilution into pH 7.4 phosphate buffer solution from nominal 10 mM DMSO stock.

Data set [10] relates to intracellular T. cruzi amastigotes, strain Silvio X10/7 A1. Briefly: intracellular T. cruzi amastigote potency assay. The following applies: Trypanosoma cruzi. It counts as cell-based.
Data set [11] deals with T. cruzi CYP51 (Trypanosoma cruzi, UniProt Q7Z1V1). Nature of the data set: T. cruzi CYP51 biochemical assay.
T. cruzi CYP51, sequence (Q7Z1V1 whole entry): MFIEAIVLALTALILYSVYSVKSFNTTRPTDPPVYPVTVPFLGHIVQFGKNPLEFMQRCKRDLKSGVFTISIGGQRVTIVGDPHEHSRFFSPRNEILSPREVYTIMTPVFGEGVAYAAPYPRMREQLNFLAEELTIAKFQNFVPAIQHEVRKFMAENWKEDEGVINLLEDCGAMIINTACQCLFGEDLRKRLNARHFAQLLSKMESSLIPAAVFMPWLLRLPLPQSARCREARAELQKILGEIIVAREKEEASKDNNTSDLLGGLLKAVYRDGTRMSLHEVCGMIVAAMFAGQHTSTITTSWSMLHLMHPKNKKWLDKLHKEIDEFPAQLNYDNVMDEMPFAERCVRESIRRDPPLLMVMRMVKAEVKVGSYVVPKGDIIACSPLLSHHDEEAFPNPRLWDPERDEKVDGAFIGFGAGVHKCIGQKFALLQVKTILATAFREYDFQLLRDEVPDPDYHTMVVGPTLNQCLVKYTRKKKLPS
Data set [12] in a line: intrinsic clearance in mouse liver microsomes. It counts as in vitro ADME. As to conditions: for half-life at 0.5 μM: male, CD-1, read-out: T 1/2 mouse. How it is done: as §1, §2, §3
The subject of data set [13] is wild-type T. cruzi epimastigotes. Nature of the data set: epimastigote drug sensitivity assay, wild-type. The class given is cell-based. As to conditions: Trypanosoma cruzi. How it is done:
as §4, §5

Setting [14] is: read-out: Trypomastigotes pEC50 (converted).
Where [15] appears, read: intracellular amastigotes Silvio X10/7 A1, 96 h, ± SD, min. three experiments, read-out: Amastigotes pEC50 (converted).
The mark [16] stands for this setting: Table 2, wild-type epimastigotes, read-out: EC50 WT.

T. cruzi complex III (epimastigote lysates), sequence (Q9T479 entry or part of it, one chain of several): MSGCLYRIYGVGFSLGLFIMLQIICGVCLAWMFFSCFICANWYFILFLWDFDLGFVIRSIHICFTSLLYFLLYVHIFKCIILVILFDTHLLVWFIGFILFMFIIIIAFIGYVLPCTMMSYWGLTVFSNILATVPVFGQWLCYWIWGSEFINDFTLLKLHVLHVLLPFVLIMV

In the case of `COc1ccc(-c2c(C)[nH]c3nc(N)nc(C)c23)c(OC)c1` [Compound 4, 5-(2,4-Dimethoxyphenyl)-4,6-dimethyl-7H-pyrrolo[2,3-d]pyrimidin-2-amine], the “95% confidence interval for no-relapse” value in data set [1] (Fig. 6, compound 4 50 mg/kg bid) is given as 0.01 − 0.58. Moreover, the fraction unbound at 4 h, 2 μM in data set [2] was 0.22. The molecule further had a Cl int human in data set [3] of 0.8 ml/min/g liver. Besides, the half-life at 0.5 μM amounted to 66 min in data set [3] and 33 min in data set [12]. The “FaSSIF pH 6.5” value in data set [4] came to 107 µg/mL. For the same molecule, the PFI in data set [5] came out at 6.1. For the same molecule, the EC50 was 6380 ± 436 nM in data set [6] (read-out: EC50 F222L); 432 ± 15 nM in data set [6] (read-out: EC50 L197I); 50 nM in data set [8] (read-out: Trypomastigotes EC50); 50.1 nM in [8] (setting [14]); 79.4 nM in data set [10] (setting [15]); 80 nM in data set [10] (read-out: Amastigotes EC50). For the same molecule, the EC50 in data set [13] (setting [16]) was 88 ± 3 nM. The “fold change from WT, L197I” value in [6] stood at 5 fold. Further, the “fold change from WT, F222L” value in [6] came out at 73 fold. The IC50 was 6 ± 1 nM in [7] and above 100000 nM in data set [11]. The same molecule registered a solubility at 1 h in data set [9] of 137 µg/mL (≈ 459 µM). Also, the Cl int mouse in data set [12] is reported as 2.0 ml/min/g liver.

Take `COc1cc(F)ccc1-c1c(C)[nH]c2nc(N)nc(C)c12` [Compound 2, 5-(4-Fluoro-2-methoxyphenyl)-4,6-dimethyl-7H-pyrrolo[2,3-d]pyrimidin-2-amine]: the fraction unbound at 4 h, 2 μM in data set [2] is 0.18. Further, the Cl int human in data set [3] stood at 0.6 ml/min/g liver. Moreover, the half-life at 0.5 μM in [3] was 96 min; in [12], 52 min. Besides, in [4], the “FaSSIF pH 6.5” value is reported as 153 µg/mL. Further, the PFI in data set [5] turned out to be 6.4. For the same molecule, the EC50 in data set [6] (read-out: EC50 F222L) is 3620 ± 322 nM; in data set [6] (read-out: EC50 L197I) it was 117 ± 5 nM; in [8] (read-out: Trypomastigotes EC50), 30 nM; in [8] (setting [14]) it was 31.6 nM; in data set [10] (setting [15]), 50.1 nM; in data set [10] (read-out: Amastigotes EC50), 50 nM. The EC50 in [13] (setting [16]) stood at 33 ± 2 nM. In data set [6], the “fold change from WT, L197I” value is recorded as 4 fold. Also, the “fold change from WT, F222L” value in data set [6] amounted to 109 fold. The concentration for half-maximal inhibition (IC50) in data set [7] was 8 ± 1 nM; in data set [11], above 100000 nM. The molecule also came in with a solubility at 1 h in data set [9] of 117 µg/mL (≈ 409 µM). This molecule gave a Cl int mouse in data set [12] of 1.3 ml/min/g liver.

As for `COc1cc(Cl)ccc1-c1c(C)[nH]c2nc(N)nc(C)c12` [Compound 3, 5-(4-Chloro-2-methoxyphenyl)-4,6-dimethyl-7H-pyrrolo[2,3-d]pyrimidin-2-amine], the “95% confidence interval for no-relapse” value in data set [1] (Fig. 3, compound 3 50 mg/kg bid) was 0.19 − 0.81. Moreover, the animals relapsed entry in data set [1] (compound 3 monotherapy 50 mg/kg bid, oral) is “three out of six”. In addition, the fraction unbound at 4 h, 2 μM in [2] is 0.03. Further, in data set [3], the Cl int human stood at 0.4 ml/min/g liver. Further, the half-life at 0.5 μM is above 139 min in data set [3] and 48 min in [12]. In [4], the “FaSSIF pH 6.5” value amounted to 76 µg/mL. Also, the PFI in data set [5] was 7.2. The EC50 in data set [6] (read-out: EC50 F222L) was determined as 1120 ± 63 nM; in data set [6] (read-out: EC50 G36C/L197F cytb line) it was 3 ± 0.1 nM; in data set [6] (read-out: EC50 G36C/L197I cytb line), 258 ± 7 nM; in data set [6] (read-out: EC50 L197F cytb line), 3.7 ± 0.1 nM; in [6] (read-out: EC50 L197I), 115 ± 7 nM; in [6] (read-out: EC50 compound 3-resistant clone RES1) it was 107 ± 5.4 nM. The EC50 was 166 ± 14 nM in data set [6] (read-out: EC50 compound 3-resistant clone RES3); 10 nM in data set [8] (read-out: Trypomastigotes EC50); 12.6 nM in [8] (setting [14]); 10 nM in data set [10] (setting [15]); 10 nM in data set [10] (read-out: Amastigotes EC50); 4.6 ± 0.2 nM in data set [13] (read-out: EC50 wild-type). Further, the EC50 came to 11.3 ± 0.5 nM in data set [13] (read-out: EC50 wild-type epimastigotes) and 6 ± 0.2 nM in data set [13] (setting [16]). Also, the “fold change from WT, L197I” value in [6] is given as 19 fold. In addition, the “fold change from WT, F222L” value in data set [6] was determined as 183 fold. In addition, in data set [6] (versus wild-type), the “cross-resistance of G36C and L197I epimastigotes” value came to 23 fold. Further, the IC50 was 2 ± 0.3 nM in data set [7] and above 100000 nM in data set [11]. The concentration in solution in [9] (solubility at 1 h) was 103 µg/mL (≈ 340 µM). Further, in [12], the Cl int mouse was 1.4 ml/min/g liver.

With `O=C(Cn1ccnc1[N+](=O)[O-])NCc1ccccc1` [Benznidazole, reference compound], the “95% confidence interval for no-relapse” value in [1] (Fig. 3, BNZ 30 mg/kg qd, Adjusted Wald) was 0.01 − 0.58; in data set [1] (Fig. 6, BNZ 30 mg/kg qd), 0.06 − 0.8. In data set [5], the PFI is listed as 4.3. Moreover, the EC50 in data set [8] (read-out: Trypomastigotes EC50) is 4000 nM; in [8] (setting [14]), 3980 nM; in [10] (setting [15]), 2000 nM; in data set [10] (read-out: Amastigotes EC50) it was 2000 nM. In addition, the concentration in solution in data set [9] (solubility at 1 h) was 77 µg/mL (≈ 296 µM).
